Reference: ChEMBL document CHEMBL4184178, “Identification of potent lysophosphatidic acid receptor 5 (LPA5) antagonists as potential analgesic agents” (Bioorg Med Chem, 2018)
Calls of active or inactive are those of the source. No cut-off for these calls is given here.

Columns and labels:
[1] = target: Lysophosphatidic acid receptor 5 (Rattus norvegicus, UniProt D4ADR1); assay: Antagonist activity at rat LPA5 receptor expressed in CHO cells assessed as inhibition of LPA-induced cAMP accumulation after 30 mins by Lance Ultra assay; format: cell-based
Lysophosphatidic acid receptor 5, sequence (D4ADR1 whole entry): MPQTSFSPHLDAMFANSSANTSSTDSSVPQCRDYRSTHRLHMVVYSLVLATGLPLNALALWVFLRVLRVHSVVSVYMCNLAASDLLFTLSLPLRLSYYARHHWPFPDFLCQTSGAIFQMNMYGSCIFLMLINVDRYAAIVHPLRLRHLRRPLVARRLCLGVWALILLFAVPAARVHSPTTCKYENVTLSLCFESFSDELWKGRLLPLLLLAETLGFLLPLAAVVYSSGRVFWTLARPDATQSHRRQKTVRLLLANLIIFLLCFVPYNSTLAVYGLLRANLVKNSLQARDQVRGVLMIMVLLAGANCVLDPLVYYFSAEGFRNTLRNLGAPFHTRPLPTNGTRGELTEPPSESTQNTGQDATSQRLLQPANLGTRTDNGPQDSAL

[2] = Plasma concentration in rat at 60 mg/kg, ip measured after 0.5 hrs by LC-MS analysis; format: ADME, organism-based
[3] = Drug uptake in rat brain at 60 mg/kg, ip measured after 0.5 hrs by LC-MS analysis; format: ADME, organism-based; conditions: read-out: Drug uptake
[4] = Brain to plasma partition coefficient, Kp of the compound in rat at 60 mg/kg, ip measured after 0.5 hrs by LC-MS analysis; format: ADME, organism-based
Rattus norvegicus [5] = assay: Analgesic effect in rat chronic constriction injury model assessed as reduction in mechanical allodynia at 60 mg/kg, ip by Von Frey test; format: functional, organism-based
Rattus norvegicus [6] = assay: Analgesic effect in rat chronic constriction injury model assessed as reduction in mechanical allodynia at 10 mg/kg, ip by Von Frey test; format: functional, organism-based

| IC50 [1] | Compound | also measured |
| --- | --- | --- |
| 1800 nM | CCOc1ccc(-n2cc(C(=O)N3CCCCCC3)c3cc(OC)c(OC)cc3c2=O)cc1 |  |
| 750 nM | CCOc1ccc(-n2cc(C(=O)N3CCC(F)CC3)c3cc(OC)c(OC)cc3c2=O)cc1 |  |
| > 30000 nM | COc1cc2c(C(=O)N3CCCCCC3)cn(-c3ccc(C(N)=O)cc3)c(=O)c2cc1OC |  |
| > 10000 nM | CCCCCCN(C)C(=O)c1cn(-c2ccc(OCC)cc2)c(=O)c2cc(OC)c(OC)cc12 |  |
| 110 nM | CCN1CCc2ccc(-n3cc(C(=O)N4CCCCCC4)c4cc(OC)c(OC)cc4c3=O)cc21 |  |
| 120 nM | CCN1CCc2ccc(-n3cc(C(=O)N4CCC(F)CC4)c4cc(OC)c(OC)cc4c3=O)cc21 | concentration at 0.5 h [2]: 9.06 µM; concentration at 0.5 h [3]: 1.22 µM; Kp at 0.5 h [4]: 0.13; Activity (Rattus norvegicus [5]): Active; Activity (Rattus norvegicus [6]): inactive |
| > 3000 nM | COc1cc2c(C(=O)N3CCCCCC3)cn(-c3ccc(F)cc3)c(=O)c2cc1OC |  |
| 570 nM | CCc1ccc(-n2cc(C(=O)N3CCCCCC3)c3cc(OC)c(OC)cc3c2=O)cc1 |  |
| > 30000 nM | COc1cc2c(C(=O)N3CCCCCC3)cn(C(C)C)c(=O)c2cc1OC |  |
| 720 nM | COc1cc2c(C(=O)N3CCCCCC3)cn(-c3ccc(C)c(C)c3)c(=O)c2cc1OC |  |
| 130 nM | COc1cc2c(C(=O)N3CCCCCC3)cn(-c3cccc(N(C)C)c3)c(=O)c2cc1OC |  |
